“And” between values parts separate entries of the source, which are not always exact repeats. Equal values may be shown once.
Conditions: Crystal

N.O=C(O)C(F)(F)C(F)(F)C(F)(F)C(F)(F)C(F)(F)C(F)(F)C(F)(F)F [ammonium perfluorooctanoate]
Conditions	vapor or sublimation pressure
318.35 K	3e-05 kPa
318.45 K	2e-05 kPa
318.55 K	3e-05 kPa and 5e-05 kPa
318.75 K	1e-05 kPa
318.85 K	7e-05 kPa
328.25 K	7e-05 kPa
328.35 K	6e-05 kPa
328.45 K	6e-05 kPa
328.65 K	9e-05 kPa and 0.00019 kPa
328.75 K	4e-05 kPa and 9e-05 kPa and 6e-05 kPa
328.85 K	0.00014 kPa and 6e-05 kPa and 0.00011 kPa
333.15 K	9e-05 kPa
333.35 K	0.00023 kPa
333.65 K	0.00013 kPa [middle of 4 runs]
333.75 K	0.00021 kPa
